Target: T1, cannabinoid receptor 2 (CB2R) (Homo sapiens, UniProt P34972)
T1 construct: gene CNR2; SNAP-tagged human CB2R in HEK-293T cells
Test: HTRF competition binding against […] fluorophore-conjugated CM157 in HEK-293T cells; also cAMP and β-arrestin II recruitment
Assay type: cell-based

T1 sequence (P34972 whole entry): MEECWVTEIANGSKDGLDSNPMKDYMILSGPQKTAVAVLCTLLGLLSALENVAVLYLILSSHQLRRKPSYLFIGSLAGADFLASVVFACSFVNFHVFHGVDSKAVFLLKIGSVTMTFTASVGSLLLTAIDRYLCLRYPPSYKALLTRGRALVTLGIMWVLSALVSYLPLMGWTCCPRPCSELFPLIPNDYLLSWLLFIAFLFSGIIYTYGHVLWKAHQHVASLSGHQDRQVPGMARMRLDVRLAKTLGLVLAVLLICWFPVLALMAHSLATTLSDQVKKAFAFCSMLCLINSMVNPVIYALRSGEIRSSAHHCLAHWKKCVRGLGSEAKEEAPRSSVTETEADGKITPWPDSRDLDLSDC

CCCC(C)(C)c1ccc2c(c1)OC(C)(C)[C@@H]1CC=C(C)C[C@@H]21 [JWH-133] showed a Ki of 18 nM.

From paper PMC12524789, “The Interplay Between CB2 and NMDA Receptors in Parkinson’s Disease” (International Journal of Molecular Sciences, 2025)
